We go through 76 compounds from ChEMBL document CHEMBL4261543, “Integrating docking scores and key interaction profiles to improve the accuracy of molecular docking: towards novel B-RafV600E inhibitors” (Medchemcomm, 2017).

A value given as a limit tells only on which side of the number the result lay.

Serine/threonine-protein kinase B-raf (Homo sapiens), P15056 [V600E], sequence (P15056 whole entry V600E): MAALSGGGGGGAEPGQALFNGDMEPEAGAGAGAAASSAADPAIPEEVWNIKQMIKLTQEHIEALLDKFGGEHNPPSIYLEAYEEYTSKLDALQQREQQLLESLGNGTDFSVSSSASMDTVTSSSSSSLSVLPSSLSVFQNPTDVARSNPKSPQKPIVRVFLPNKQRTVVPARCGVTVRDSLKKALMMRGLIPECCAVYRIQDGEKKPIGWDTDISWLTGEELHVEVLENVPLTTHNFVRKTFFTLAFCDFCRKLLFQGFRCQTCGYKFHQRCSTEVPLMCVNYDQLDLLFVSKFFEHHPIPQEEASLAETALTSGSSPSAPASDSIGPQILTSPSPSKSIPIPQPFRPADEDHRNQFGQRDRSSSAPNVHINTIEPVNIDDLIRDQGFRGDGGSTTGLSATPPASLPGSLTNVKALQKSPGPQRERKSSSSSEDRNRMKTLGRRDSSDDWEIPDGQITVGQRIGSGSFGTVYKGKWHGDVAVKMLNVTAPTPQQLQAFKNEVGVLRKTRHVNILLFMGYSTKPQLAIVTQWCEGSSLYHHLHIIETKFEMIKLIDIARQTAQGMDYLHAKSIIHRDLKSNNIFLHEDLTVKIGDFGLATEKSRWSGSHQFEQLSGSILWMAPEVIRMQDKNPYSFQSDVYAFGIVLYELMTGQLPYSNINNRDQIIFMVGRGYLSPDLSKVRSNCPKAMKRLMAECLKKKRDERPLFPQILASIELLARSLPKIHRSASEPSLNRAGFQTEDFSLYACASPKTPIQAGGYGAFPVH
Serine/threonine-protein kinase B-raf, sequence (P15056 2-766 V600E limits assumed): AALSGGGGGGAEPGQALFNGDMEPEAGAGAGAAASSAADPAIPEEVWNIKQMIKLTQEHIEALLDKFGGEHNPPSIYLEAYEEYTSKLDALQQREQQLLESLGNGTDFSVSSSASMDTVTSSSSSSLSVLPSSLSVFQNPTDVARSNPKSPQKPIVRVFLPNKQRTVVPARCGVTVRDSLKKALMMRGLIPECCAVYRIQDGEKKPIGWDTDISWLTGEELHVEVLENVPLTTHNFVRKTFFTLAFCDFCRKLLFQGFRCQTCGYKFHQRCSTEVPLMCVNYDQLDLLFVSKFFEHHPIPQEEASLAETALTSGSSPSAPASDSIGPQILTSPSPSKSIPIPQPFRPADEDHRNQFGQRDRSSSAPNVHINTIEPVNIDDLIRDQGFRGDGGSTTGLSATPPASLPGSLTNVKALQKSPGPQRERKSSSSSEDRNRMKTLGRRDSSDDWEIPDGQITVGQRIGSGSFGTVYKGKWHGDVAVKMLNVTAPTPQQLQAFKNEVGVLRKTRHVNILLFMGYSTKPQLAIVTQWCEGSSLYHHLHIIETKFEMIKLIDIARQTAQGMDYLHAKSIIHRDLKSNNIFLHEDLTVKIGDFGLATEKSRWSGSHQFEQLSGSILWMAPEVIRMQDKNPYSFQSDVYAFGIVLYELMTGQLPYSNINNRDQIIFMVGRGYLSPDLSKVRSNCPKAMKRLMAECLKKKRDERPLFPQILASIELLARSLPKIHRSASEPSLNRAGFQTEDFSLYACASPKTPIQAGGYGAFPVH

One experiment addresses Serine/threonine-protein kinase B-raf (Homo sapiens, UniProt P15056, V600E). The experiment can be described thus: Inhibition of B-Raf V600E mutant (unknown origin) using fluorescein-MAP2K1 as substrate after 1 hr by electrophoretic assay.
On to `CCCS(=O)(=O)Nc1ccc(F)c(C(=O)Nc2cnc3[nH]cc(Br)c3c2)c1F`, for which the IC50 (usually the midpoint of a concentration-inhibition curve) fell in the range of 3.4 to 4 nM.

`CCCS(=O)(=O)Nc1ccc(Cl)c(C(=O)Nc2cnc3[nH]cc(OC)c3c2)c1F` showed an IC50 of 1.7 nM.

Turning to `CCCS(=O)(=O)Nc1ccc(F)c(C(=O)Nc2cnc3[nH]cc(N(C)C)c3c2)c1F`, half-maximal inhibition (IC50) was put at 8.2 nM.

As for `CCCS(=O)(=O)Nc1ccc(F)c(C(=O)Nc2cnc3[nH]cnc3c2)c1C`, the IC50 came out at 61 nM.

With `CCCS(=O)(=O)Nc1ccc(F)c(C(=O)Nc2cnc3[nH]cc(OC)c3c2)c1F`, the IC50 came out at 4.8 nM.

As to `CCCS(=O)(=O)Nc1ccc(F)c(C(=O)Nc2cnc3[nH]ccc3c2)c1C`, 38 nM corresponded to half-maximal inhibition (IC50).

`CCCS(=O)(=O)Nc1ccc(F)c(C(=O)Nc2ccc(N)nc2)c1F` registered an IC50 of 917 to 920 nM.

Compound `O=c1c(O)c(-c2cc(O)c(O)c(O)c2)oc2cc(O)cc(O)c12` [MYRICETIN] gave an IC50 of 1560 nM.

Compound `CCCS(=O)(=O)Nc1ccc(F)c(C(=O)Nc2cnc3[nH]ccc3c2)c1F` returned an IC50 of 17 nM.

For the compound `CCCS(=O)(=O)Nc1ccc(F)c(C(=O)Nc2cnc3[nH]cc(C)c3c2)c1F`, the IC50 is 12 nM.

`O=c1c(O)c(-c2ccc(O)c(O)c2)oc2cc(O)cc(O)c12` [QUERCETIN] showed an IC50 of 7590 nM.

For `CCCS(=O)(=O)Nc1ccc(Cl)c(C(=O)Nc2cnc3[nH]ccc3c2)c1F`, half-maximal inhibition (IC50) was put at 6.3 nM.

The subject of a further experiment is Serine/threonine-protein kinase B-raf (Homo sapiens), P15056 [V600E]. The experiment can be described thus: Inhibition of B-Raf V600E mutant (unknown origin) at 10 uM using fluorescein-MAP2K1 as substrate after 1 hr by electrophoretic assay relative to control.
As to `C[C@@H](NC(=O)[C@H]1CCCCN1CCO)c1ccc(Nc2ncc3cc(-c4ccncc4)ccc3n2)cc1`, the inhibition (commonly how much of the control response was suppressed) is more than 40%.

`CCCS(=O)(=O)Nc1ccc(F)c(-c2cc3cnc(NCCO)nc3n(C)c2=O)c1F` had an inhibition of more than 40%.

`COCCNC(=O)c1ccc(Nc2ncc3cc(-c4ccnc(C)c4)ccc3n2)cc1` had an inhibition of more than 40%.

`CCCS(=O)(=O)Nc1ccc(F)c(C(=O)Nc2cnc3[nH]cc(Br)c3c2)c1F` displayed an inhibition of more than 40%.

The compound `CCCS(=O)(=O)Nc1ccc(Cl)c(C(=O)Nc2cnc3[nH]cc(OC)c3c2)c1F` registered an inhibition of more than 40%.

`CCCS(=O)(=O)Nc1ccc(F)c(-c2ccc3ccncc3n2)c1F` gave an inhibition of more than 40%.

`COCCNC(=O)c1ccc(Nc2ncc3cc(-c4ccncc4OC)ccc3n2)cc1` gave an inhibition of more than 40%.

`CCCS(=O)(=O)Nc1ccc(F)c(C(=O)Nc2cnc3[nH]cc(N(C)C)c3c2)c1F`: the inhibition was more than 40%.

`CCCS(=O)(=O)Nc1ccc(F)c(-c2cc3cnc(NCCCO)nc3n(C)c2=O)c1F` registered an inhibition of more than 40%.

`CCCS(=O)(=O)Nc1ccc(F)c(-c2cc3cnc(N)nc3n(C)c2=O)c1F` yielded an inhibition of more than 40%.

Regarding `COCCNC(=O)c1ccc(Nc2ncc3cc(-c4ccncc4Cl)ccc3n2)cc1`, the inhibition was more than 40%.

`CC(=O)N[C@H](C)c1ccc(Nc2ncc3cc(-c4ccncc4)c(C)cc3n2)cc1` registered an inhibition of more than 40%.

`CCCS(=O)(=O)Nc1ccc(F)c(-c2cc3cnc(NC)nc3n(C)c2=O)c1F`: the inhibition is more than 40%.

In the case of `COCCNC(=O)c1ccc(Nc2ncc3cc(-c4ccc(F)nc4)ccc3n2)cc1`, the inhibition is more than 40%.

`CCCS(=O)(=O)Nc1ccc(F)c(C(=O)Nc2cnc3[nH]cnc3c2)c1C` showed an inhibition of more than 40%.

With `CCCS(=O)(=O)Nc1ccc(F)c(C(=O)Nc2cnc3[nH]cc(OC)c3c2)c1F`, the inhibition was more than 40%.

`CCCS(=O)(=O)Nc1ccc(F)c(-c2cc3cnc(NC4CCOCC4)nc3n(C)c2=O)c1F` registered an inhibition of more than 40%.

`CCCS(=O)(=O)Nc1ccc(F)c(C(=O)Nc2cnc3[nH]ccc3c2)c1C` displayed an inhibition of more than 40%.

The compound `CCCS(=O)(=O)Nc1ccc(F)c(NC(=O)Nc2ncnc3[nH]ncc23)c1F` yielded an inhibition of more than 40%.

`CN1CCCC1CCNC(=O)c1ccc(Nc2ncc3cc(-c4ccncc4)ccc3n2)cc1` (stereo unspecified): the inhibition was more than 40%.

Turning to `CCCS(=O)(=O)Nc1ccc(F)c(C(=O)Nc2cnc3[nH]nc(OC)c3c2)c1F`, the inhibition was more than 40%.

For the compound `CCCS(=O)(=O)Nc1ccc(F)c(C(=O)Nc2ccc(N)nc2)c1F`, the inhibition was more than 40%.

Compound `CCCS(=O)(=O)Nc1ccc(C)c(-c2ccc3nc(N)ncc3c2)c1` displayed an inhibition of more than 40%.

On to `CCCS(=O)(=O)Nc1ccc(F)c(NC(=O)Nc2cc(N)ncn2)c1F`, for which the inhibition is more than 40%.

Compound `CC(C)c1nc(-c2cccc(NS(=O)(=O)c3c(F)cccc3F)c2)c(-c2ccnc(N)n2)s1` gave an inhibition of more than 40%.

Consider `CC(C)c1nc(-c2cccc(NS(=O)(=O)c3cccc(F)c3)c2)c(-c2ccnc(NCC(N)=O)n2)s1`, for which the inhibition was more than 40%.

As for `COCCNC(=O)c1ccc(Nc2ncc3cc(-c4ccc(OC)nc4)ccc3n2)cc1`, the inhibition is more than 40%.

`COCCNC(=O)c1ccc(Nc2ncc3cc(-c4ccncc4)ccc3n2)cc1F` yielded an inhibition of more than 40%.

Compound `CCCS(=O)(=O)Nc1ccc(F)c(C(=O)Nc2cnc3[nH]ccc3c2)c1F` showed an inhibition of more than 40%.

Compound `CCCS(=O)(=O)Nc1ccc(F)c(-c2cc3cnc(NCC4CC4)nc3n(C)c2=O)c1F` had an inhibition of more than 40%.

The compound `Nc1ncnc2c(C(=O)Nc3c(Cl)ccc(NS(=O)(=O)CCCF)c3F)cccc12` had an inhibition of more than 40%.

Consider `COCCNC(=O)c1ccc(Nc2ncc3cc(-c4ccccc4)ccc3n2)cc1`, for which the inhibition is more than 40%.

With `C[C@@H](NC1=CC(=O)CNC1)c1ccc(Nc2ncc3cc(-c4ccncc4)ccc3n2)cc1`, the inhibition was more than 40%.

With `C[C@@H](NC(=O)C1CCNCC1)c1ccc(Nc2ncc3cc(-c4ccncc4)ccc3n2)cc1`, the inhibition is more than 40%.

Compound `CC(=O)Nc1ccc(Nc2ncc3cc(-c4ccncc4)ccc3n2)cc1` had an inhibition of more than 40%.

The compound `CCCS(=O)(=O)Nc1ccc(F)c(C(=O)Nc2cnc3[nH]cc(C)c3c2)c1F` came in with an inhibition of more than 40%.

`CCCS(=O)(=O)Nc1ccc(F)c(-c2cc3cnc(Nc4cccnc4)nc3n(C)c2=O)c1F` came in with an inhibition of more than 40%.

On to `CC(=O)N(C)c1ccc(Nc2ncc3cc(-c4ccncc4)ccc3n2)cc1`, for which the inhibition was more than 40%.

`c1cc(-c2ccc3nc(Nc4ccc(OCCN5CCCC5)cc4)ncc3c2)ccn1` gave an inhibition of more than 40%.

`CCCS(=O)(=O)Nc1ccc(F)c(-c2cc3cnccc3n(CCc3ccccc3)c2=O)c1F` came in with an inhibition of more than 40%.

In the case of `CCCS(=O)(=O)Nc1ccc(F)c(-c2cc3cnccc3c(=O)n2C)c1F`, the inhibition was more than 40%.

In the case of `CCCS(=O)(=O)Nc1ccc(Cl)c(NC(=O)c2csc3c(N)ncnc23)c1F`, the inhibition was more than 40%.

Take `CCCS(=O)(=O)Nc1ccc(F)c(NC(=O)N(C)c2cc(N)ncn2)c1F`: the inhibition was more than 40%.

`CCCS(=O)(=O)Nc1ccc(F)c(NC(=O)Nc2ncnc3[nH]nc(OC)c23)c1F` returned an inhibition of more than 40%.

The compound `CC(C)c1nc(-c2ccc(F)c(NS(=O)(=O)c3c(F)cccc3F)c2)c(-c2ccnc(Nc3ccc(N4CCOCC4)nc3)n2)s1` gave an inhibition of more than 40%.

`CCCS(=O)(=O)Nc1ccc(F)c(NC(=O)c2csc3c(N)ncnc23)c1Cl` gave an inhibition of more than 40%.

Consider `CN(C)CCNC(=O)c1ccc(Nc2ncc3cc(-c4ccncc4)ccc3n2)cc1`, for which the inhibition was more than 40%.

On to `CCCS(=O)(=O)Nc1ccc(F)c(-c2ccc3cc(N)ncc3c2)c1F`, for which the inhibition was more than 40%.

The compound `CCCS(=O)(=O)Nc1ccc(F)c(-c2cc3cnc(Nc4cnn(C)c4)nc3n(C)c2=O)c1F` returned an inhibition of more than 40%.

Turning to `CC(C)(C)c1nc(-c2cccc(NS(=O)(=O)c3cc(F)ccc3F)c2)c(-c2ccnc(N)n2)s1`, the inhibition is more than 40%.

As for `CC(C)(C)c1nc(-c2cccc(NS(=O)(=O)c3c(F)cccc3F)c2F)c(-c2ccnc(N)n2)s1`, the inhibition is more than 40%.

`CC(C)c1nc(-c2cccc(NS(=O)(=O)c3cccc(F)c3)c2)c(-c2ccnc(NCCCN(C)C)n2)s1` registered an inhibition of more than 40%.

Consider `CC(=O)N[C@H](C)c1ccc(Nc2ncc3cc(-c4ccncc4)cc(Cl)c3n2)cc1`, for which the inhibition is more than 40%.

The compound `CCCS(=O)(=O)Nc1ccc(Cl)c(C(=O)Nc2cnc3[nH]ccc3c2)c1F` yielded an inhibition of more than 40%.

In the case of `Nc1ncnc2c(C(=O)Nc3c(Cl)ccc(NS(=O)(=O)CCCF)c3F)csc12`, the inhibition was more than 40%.

As for `CCCS(=O)(=O)Nc1ccc(F)c(-c2ccc3ccncc3c2)c1F`, the inhibition was more than 40%.

`CCCS(=O)(=O)Nc1ccc(Cl)c(NC(=O)c2cccc3c(N)ncnc23)c1F` displayed an inhibition of more than 40%.

Compound `COCCNC(=O)c1ccc(Nc2ncc3cc(-c4ccncc4C)ccc3n2)cc1` yielded an inhibition of more than 40%.

In turn, `CC(C)c1nc(-c2ccc(F)c(NS(=O)(=O)c3c(F)cccc3F)c2)c(-c2ccnc(NCCS(C)(=O)=O)n2)s1` displayed an inhibition of more than 40%.

Take `CCCS(=O)(=O)Nc1ccc(F)c(NC(=O)c2cccc3c(N)ncnc23)c1F`: the inhibition was more than 40%.

`COCCOc1ccc(Nc2ncc3cc(-c4ccncc4)ccc3n2)cc1` yielded an inhibition of more than 40%.

On to `C[C@@H](NC(=O)[C@H]1CCCCN1C)c1ccc(Nc2ncc3cc(-c4ccncc4)ccc3n2)cc1`, for which the inhibition is more than 40%.

With `O=C(NCCN1CCCC1)c1ccc(Nc2ncc3cc(-c4ccncc4)ccc3n2)cc1`, the inhibition was more than 40%.

The compound `CCCS(=O)(=O)Nc1ccc(F)c(NC(=O)Nc2cc(NC)ncn2)c1F` showed an inhibition of more than 40%.

Take `CCCS(=O)(=O)Nc1ccc(F)c(-c2ccc3nc(N)ncc3c2)c1F`: the inhibition is more than 40%.

In turn, `CCCS(=O)(=O)Nc1ccc(F)c(C(=O)c2c[nH]c3ncc(-c4ccc(Cl)cc4)cc23)c1F` displayed an inhibition of more than 40%.

In turn, `CCCS(=O)(=O)Nc1ccc(F)c(NC(=O)c2csc3c(N)ncnc23)c1F` showed an inhibition of more than 40%.

The compound `CCCS(=O)(=O)Nc1ccc(F)c(-c2cc3cncc(Br)c3cn2)c1F` came in with an inhibition of more than 40%.

In the case of `COCCNC(=O)c1ccc(Nc2ncc3cc(-c4cncnc4)ccc3n2)cc1`, the inhibition is more than 40%.

For `CCCS(=O)(=O)Nc1ccc(F)c(-c2cc3cnccc3cn2)c1F`, the inhibition is more than 40%.

In turn, `CCCS(=O)(=O)Nc1ccc(F)c(NC(=O)c2cccc3c(N)ncnc23)c1Cl` showed an inhibition of more than 40%.

`COCCNC(=O)c1ccc(Nc2ncc3cc(-c4cccnc4)ccc3n2)cc1` registered an inhibition of more than 40%.

As for `CCCS(=O)(=O)Nc1ccc(F)c(-c2cc3cnc(Nc4ccccc4)nc3n(C)c2=O)c1F`, the inhibition is more than 40%.

With `CC(C)c1nc(-c2cccc(NS(=O)(=O)c3c(F)cccc3F)c2)c(-c2ccnc(NCCS(C)(=O)=O)n2)s1`, the inhibition is more than 40%.
